Reference: paper PMC7914897, “Cytotoxic Potential of a-Azepano- and 3-Amino-3,4-SeCo-Triterpenoids” (International Journal of Molecular Sciences, 2021)

Tests used:
[1] = test system: M14 (Melanoma); assay: NCI-60 screen (SRB, 48 h)
[2] = test system: HCT-15 (Colon cancer); assay: NCI-60 screen (SRB, 48 h); details: Homo sapiens
[3] = test system: A498 (Renal cancer); assay: NCI-60 screen (SRB, 48 h); details: Homo sapiens
[4] = test system: SN12C (Renal cancer); assay: NCI-60 screen (SRB, 48 h); details: Homo sapiens
[5] = test system: SNB-75 (CNS cancer); assay: NCI-60 screen (SRB, 48 h); details: Homo sapiens
[6] = test system: HCC-2998 (Colon cancer); assay: NCI-60 screen (SRB, 48 h); details: Homo sapiens
[7] = test system: ACHN (Renal cancer); assay: NCI-60 screen (SRB, 48 h); details: Homo sapiens
[8] = test system: SF-295 (CNS cancer); assay: NCI-60 screen (SRB, 48 h); details: Homo sapiens
[9] = test system: MDA-MB-31/ATCC (Breast cancer); assay: NCI-60 screen (SRB, 48 h); details: Homo sapiens
[10] = test system: Melanoma subpanel; assay: NCI-60 screen, subpanel; details: Homo sapiens
[11] = test system: CNS cancer subpanel; assay: NCI-60 screen, subpanel; details: Homo sapiens
[12] = test system: MALME-3M (Melanoma); assay: NCI-60 screen (SRB, 48 h); details: Homo sapiens
[13] = test system: MCF7 (Breast cancer); assay: NCI-60 screen (SRB, 48 h); details: Homo sapiens
[14] = test system: NCI-H226 (NSC lung cancer); assay: NCI-60 screen (SRB, 48 h); details: Homo sapiens
[15] = test system: HOP-92 (NSC lung cancer); assay: NCI-60 screen (SRB, 48 h); details: Homo sapiens
[16] = test system: UACC-257 (Melanoma); assay: NCI-60 screen (SRB, 48 h); details: Homo sapiens
[17] = test system: NIH 3T3 (non-malignant mouse fibroblasts); assay: SRB cytotoxicity assay, 72 h; type: cell-based; details: NIH 3T3, 72 h, cut-off 30 µM
Protocol: The cytotoxicity of compounds 1–20 was evaluated by means of a colorimetric sulforhodamine B (SRB) assay. For all compounds, the EC50 values were determined for the human tumor cell lines A375 (malignant melanoma), HT29 (colorectal carcinoma), MCF-7 (breast carcinoma), A2780 (ovarian carcinoma), FaDu (hypopharyngeal carcinoma), and NIH 3T3 (non-malignant mouse fibroblasts).
In short, exponentially growing cells were seeded into 96-well plates on day 0 at the appropriate cell densities to prevent confluence of the cells during the period of experiment. After 24 h, the cells were treated with serial dilutions of the compounds (0–30 µM) for 72 h. The final concentration of DMSO never exceeded 0.5%, which was non-toxic to the cells. After a 72 h treatment, the supernatant medium from the 96-well plates was discarded, and the cells were fixed with 10% TCA. For a thorough fixation, the plates were allowed to rest at 4 °C. After fixation, the cells were washed in a strip washer. The washing was done four times with water using alternate dispensing and aspiration procedures. The plates were then dyed with 100 µL of 0.4% SRB for about 20 min. After dying, the plates were washed with 1% acetic acid to remove the excess of the dye and allowed to air-dry overnight. Tris base solution (200 µL, 10 mM) was added to each well and absorbance was measured at λ = 570 nm (using a 96 well plate reader, Tecan Spectra, Crailsheim, Germany). The percentages of surviving cells relative to untreated controls were determined.

[18] = test system: OVCAR-5 (Ovarian cancer); assay: NCI-60 screen (SRB, 48 h); details: Homo sapiens
[19] = test system: SW-620 (Colon cancer); assay: NCI-60 screen (SRB, 48 h); details: Homo sapiens
[20] = test system: HCT-116 (Colon cancer); assay: NCI-60 screen (SRB, 48 h); details: Homo sapiens
[21] = test system: COLO 205 (Colon cancer); assay: NCI-60 screen (SRB, 48 h)
[22] = test system: NCI-H322M (NSC lung cancer); assay: NCI-60 screen (SRB, 48 h); details: Homo sapiens
[23] = test system: SNB-19 (CNS cancer); assay: NCI-60 screen (SRB, 48 h); details: Homo sapiens

**Q.** With `CC1(C)CC[C@]2(CO)CC[C@]3(C)C(=CC[C@@H]4[C@@]5(C)CCCNC(C)(C)[C@@H]5CC[C@]43C)[C@@H]2C1` [Compound 3, azepanoerythrodiol] as the compound, how does the GI50 ([1]; Homo sapiens, M14) read?
**A.** 2.04 µM

**Q.** And the IC (TGI) ([1]; Homo sapiens, M14, 48 h, read-out: TGI)?
**A.** 3.87 µM

**Q.** What about the CC50 ([1]; Homo sapiens, M14, read-out: LC50) of the same compound?
**A.** 7.34 µM

**Q.** What about the “Growth % of the Most Sensitive Cell Lines” value ([1]; M14, 1 dose 10 µM) of the same compound?
**A.** −82.21%

**Q.** What about the GI50 ([2]; HCT-15) of the same compound?
**A.** 3.06 µM

**Q.** And the IC (TGI) ([2]; HCT-15, 48 h, read-out: TGI)?
**A.** 1.04 µM

**Q.** What about the CC50 ([2]; HCT-15, read-out: LC50) of the same compound?
**A.** 42.3 µM

**Q.** And the GI50 ([3]; A498)?
**A.** 16.7 µM

**Q.** What about the IC (TGI) ([3]; A498, 48 h, read-out: TGI) of the same compound?
**A.** 38.1 µM

**Q.** And the CC50 ([3]; A498, read-out: LC50)?
**A.** 86.7 µM

**Q.** And the GI50 [4]?
**A.** 4.02 µM

**Q.** What about the IC (TGI) ([4]; 48 h, read-out: TGI) of the same compound?
**A.** 16.8 µM

**Q.** And the CC50 ([4]; read-out: LC50)?
**A.** 45.6 µM

**Q.** What about the GI50 ([5]; SNB-75) of the same compound?
**A.** 9.84 µM

**Q.** What about the IC (TGI) ([5]; SNB-75, 48 h, read-out: TGI) of the same compound?
**A.** 2.17 µM

**Q.** What about the CC50 ([5]; SNB-75, read-out: LC50) of the same compound?
**A.** 47.1 µM

**Q.** And the GI50 ([6]; HCC 2998)?
**A.** 1.89 µM

**Q.** And the IC (TGI) ([6]; HCC 2998, 48 h, read-out: TGI)?
**A.** 3.81 µM

**Q.** And the CC50 ([6]; HCC 2998, read-out: LC50)?
**A.** 7.69 µM

**Q.** And the GI50 [7]?
**A.** 3.44 µM

**Q.** What about the IC (TGI) ([7]; 48 h, read-out: TGI) of the same compound?
**A.** 11.5 µM

**Q.** And the CC50 ([7]; read-out: LC50)?
**A.** 38.3 µM

**Q.** What about the GI50 ([8]; SF-295) of the same compound?
**A.** 1.77 µM

**Q.** And the IC (TGI) ([8]; SF-295, 48 h, read-out: TGI)?
**A.** 3.62 µM

**Q.** What about the CC50 ([8]; SF-295, read-out: LC50) of the same compound?
**A.** 7.4 µM

**Q.** And the GI50 [9]?
**A.** 3.5 µM

**Q.** What about the IC (TGI) ([9]; 48 h, read-out: TGI) of the same compound?
**A.** 13 µM

**Q.** What about the CC50 ([9]; read-out: LC50) of the same compound?
**A.** 45.6 µM

**Q.** What about the IC (TGI) ([10]; 48 h, read-out: TGI MG_MID) of the same compound?
**A.** 4.31 µM

**Q.** What about the GI50 ([10]; read-out: GI50 MG_MID) of the same compound?
**A.** 2.05 µM

**Q.** And the CC50 ([10]; read-out: LC50 MG_MID)?
**A.** 12.2 µM

**Q.** What about the IC (TGI) ([11]; 48 h, read-out: TGI MG_MID) of the same compound?
**A.** 4.13 µM

**Q.** And the GI50 ([11]; read-out: GI50 MG_MID)?
**A.** 6.53 µM

**Q.** What about the CC50 ([11]; read-out: LC50 MG_MID) of the same compound?
**A.** 40 µM

**Q.** What about the GI50 [12] of the same compound?
**A.** 2.02 µM

**Q.** And the IC (TGI) ([12]; 48 h, read-out: TGI)?
**A.** 3.56 µM

**Q.** And the CC50 ([12]; read-out: LC50)?
**A.** 6.27 µM

**Q.** And the GI50 ([13]; MCF7)?
**A.** 2.16 µM

**Q.** What about the IC (TGI) ([13]; MCF7, 48 h, read-out: TGI) of the same compound?
**A.** 5.54 µM

**Q.** What about the CC50 ([13]; MCF7, read-out: LC50) of the same compound?
**A.** 22.7 µM

**Q.** And the GI50 ([14]; NCI-H226)?
**A.** 1.13 µM

**Q.** What about the IC (TGI) ([14]; NCI-H226, 48 h, read-out: TGI) of the same compound?
**A.** 28.5 µM

**Q.** What about the CC50 ([14]; NCI-H226, read-out: LC50) of the same compound?
**A.** 71.8 µM

**Q.** And the GI50 ([15]; HOP-92)?
**A.** 1.36 µM

**Q.** And the IC (TGI) ([15]; HOP-92, 48 h, read-out: TGI)?
**A.** 30.7 µM

**Q.** And the CC50 ([15]; HOP-92, read-out: LC50)?
**A.** 6.92 µM

**Q.** And the GI50 ([16]; UACC-257)?
**A.** 2.49 µM

**Q.** What about the IC (TGI) ([16]; UACC-257, 48 h, read-out: TGI) of the same compound?
**A.** 6.47 µM

**Q.** What about the CC50 ([16]; UACC-257, read-out: LC50) of the same compound?
**A.** 27.6 µM

**Q.** And the EC50 [17]?
**A.** n.s.

**Q.** What about the GI50 ([18]; OVCAR-5) of the same compound?
**A.** 11.9 µM

**Q.** What about the IC (TGI) ([18]; OVCAR-5, 48 h, read-out: TGI) of the same compound?
**A.** 24.6 µM

**Q.** What about the CC50 ([18]; OVCAR-5, read-out: LC50) of the same compound?
**A.** 51 µM

**Q.** And the GI50 ([19]; SW-620)?
**A.** 1.91 µM

**Q.** And the IC (TGI) ([19]; SW-620, 48 h, read-out: TGI)?
**A.** 4 µM

**Q.** What about the CC50 ([19]; SW-620, read-out: LC50) of the same compound?
**A.** 8.35 µM

**Q.** And the GI50 ([20]; HCT-116)?
**A.** 1.64 µM

**Q.** What about the activity at 10 µM ([20]; HCT-116, 48 h, read-out: Growth % of the Most Sensitive Cell Lines) of the same compound?
**A.** -85.8%

**Q.** And the IC (TGI) ([20]; HCT-116, 48 h, read-out: TGI)?
**A.** 3.11 µM

**Q.** What about the CC50 ([20]; HCT-116, read-out: LC50) of the same compound?
**A.** 5.92 µM

**Q.** What about the “Growth % of the Most Sensitive Cell Lines” value ([21]; COLO 205, 1 dose 10 µM) of the same compound?
**A.** −88.44%

**Q.** What about the GI50 ([21]; Homo sapiens, COLO 205) of the same compound?
**A.** 1.83 µM

**Q.** What about the IC (TGI) ([21]; Homo sapiens, COLO 205, 48 h, read-out: TGI) of the same compound?
**A.** 3.25 µM

**Q.** What about the CC50 ([21]; Homo sapiens, COLO 205, read-out: LC50) of the same compound?
**A.** 5.77 µM

**Q.** What about the GI50 [22] of the same compound?
**A.** 3.69 µM

**Q.** And the IC (TGI) ([22]; 48 h, read-out: TGI)?
**A.** 10.3 µM

**Q.** And the CC50 ([22]; read-out: LC50)?
**A.** 36 µM

**Q.** What about the GI50 ([23]; SNB-19) of the same compound?
**A.** 11.7 µM

**Q.** What about the IC (TGI) ([23]; SNB-19, 48 h, read-out: TGI) of the same compound?
**A.** 2.61 µM

**Q.** What about the CC50 ([23]; SNB-19, read-out: LC50) of the same compound?
**A.** 58.1 µM
